Publication PMC4252262 (Chemico-biological interactions, 2014)
Several values for one entry are separate records, joined by “and”; a condition that tells them apart may be missing. Equal values may be shown once. Read-outs that look alike come from different tables or passages of the source. Each block holds one compound with its values, some of them ahead of it.

Tests used:
Type in all cases: biochemical
[1] = molecular target: T1, human cytochrome P450_2A6 (Homo sapiens, UniProt P11509); experiment: Inhibition of P450 2A6
T1 sequence (P11509 1-494): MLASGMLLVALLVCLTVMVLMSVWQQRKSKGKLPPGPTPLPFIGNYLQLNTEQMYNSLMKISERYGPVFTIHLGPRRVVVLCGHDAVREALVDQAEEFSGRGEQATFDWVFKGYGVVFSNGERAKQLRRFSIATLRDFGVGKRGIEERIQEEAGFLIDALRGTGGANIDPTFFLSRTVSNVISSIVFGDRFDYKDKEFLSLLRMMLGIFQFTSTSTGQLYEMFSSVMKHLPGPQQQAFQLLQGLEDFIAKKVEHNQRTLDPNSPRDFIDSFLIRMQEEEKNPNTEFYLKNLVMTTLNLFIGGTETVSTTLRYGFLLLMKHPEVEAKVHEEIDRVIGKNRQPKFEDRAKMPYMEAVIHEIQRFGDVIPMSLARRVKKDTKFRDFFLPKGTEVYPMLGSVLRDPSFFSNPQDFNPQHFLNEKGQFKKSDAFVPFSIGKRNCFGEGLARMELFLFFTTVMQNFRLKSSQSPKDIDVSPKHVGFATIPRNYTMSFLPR

[2] = molecular target: T2, expressed 2A6 (supersomes) (Homo sapiens, UniProt P11509); experiment: Aldehyde oxidation to carboxylic acid by expressed human P450 2A6 supersomes; conditions: 100-120 μM aldehyde, 1.0 mM NADPH, 45 min, 37 °C
T2 sequence (P11509 1-494): T1 sequence (P11509 1-494)

[3] = molecular target: expressed cytochrome P450_2E1 in supersomes (Homo sapiens, UniProt P05181); experiment: Aldehyde oxidation to carboxylic acid by expressed human P450 2E1 supersomes; conditions: for NADPH-dependent oxidation of aldehyde by expressed 2E1: 100-120 μM aldehyde, 1.0 mM NADPH, 45 min, 37 °C; for effect on the rate of acid formation from trans-2-octenal: 1.0 mM added, 2E1 supersomes
[4] = molecular target: human cytochrome P450_2E1 (Homo sapiens, UniProt P05181); experiment: Inhibition of P450 2E1; conditions: for Ki: KI for inhibition of 2E1, competitive model, p-nitrophenol substrate; for fold difference in 2E1 KI, branched versus linear 10-carbon aldehyde: decanal vs citronellal, decenal vs citral
2E1 = 2E1 (Homo sapiens, UniProt P05181); conditions: 25 μM; 15 min pre-incubation at 37 °C in the presence of 1 mM NADPH; positive control
[5] = KI for inhibition of 2A6, competitive model, coumarin substrate

Sequence of expressed cytochrome P450_2E1 in supersomes (P05181 whole entry): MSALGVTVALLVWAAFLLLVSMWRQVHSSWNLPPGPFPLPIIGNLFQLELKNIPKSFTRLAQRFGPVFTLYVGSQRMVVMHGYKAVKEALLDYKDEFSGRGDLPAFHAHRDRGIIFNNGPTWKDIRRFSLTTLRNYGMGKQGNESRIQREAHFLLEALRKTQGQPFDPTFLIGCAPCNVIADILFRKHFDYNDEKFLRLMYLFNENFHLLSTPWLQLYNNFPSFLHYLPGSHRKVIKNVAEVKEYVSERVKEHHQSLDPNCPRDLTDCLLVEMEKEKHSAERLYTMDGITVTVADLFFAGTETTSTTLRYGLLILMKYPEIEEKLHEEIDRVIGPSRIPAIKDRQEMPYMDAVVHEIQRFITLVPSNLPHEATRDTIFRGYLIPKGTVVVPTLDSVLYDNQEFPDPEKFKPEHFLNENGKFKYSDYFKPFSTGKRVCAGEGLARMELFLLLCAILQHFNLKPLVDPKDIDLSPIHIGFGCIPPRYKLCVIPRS
Sequence of human cytochrome P450_2E1 (P05181 whole entry): as above
Sequence of 2E1 (P05181 whole entry): as above

Compound: CCCCCCC/C=C/C=O [Decyl Unsaturated, trans-2-decenal]
NADPH-dependent oxidation of aldehyde by expressed 2A6 [2]: no acid products
NADPH-dependent oxidation of aldehyde by expressed 2E1 [3]: effective in the oxidation

Compound: O=C1O[C@H]([C@@H](O)CO)C(O)=C1O [ascorbate, reference compound]
effect on the rate of acid formation from trans-2-octenal [3]: no effect

Compound: N[C@@H](CCC(=O)N[C@@H](CS)C(=O)NCC(=O)O)C(=O)O [glutathione, reference compound]
effect on the rate of acid formation from trans-2-octenal [3]: no effect

Compound: CCCCC/C=C/C=O [Octyl Unsaturated, trans-2-octenal]
NADPH-dependent oxidation of aldehyde by expressed 2A6 [2]: no acid products
NADPH-dependent oxidation of aldehyde by expressed 2E1 [3]: effective in the oxidation

Compound: CCC/C=C/C=O [Hexyl Unsaturated]
Ki [1]: 33 ± 3 µM

Compound: CCCCCCCCCCCC(=O)O [lauric acid, reference compound]
reduction of the activity of 2E1 ([4]; concentration of 50 μM): 50%

Compound: CCCCCCCC/C=C/C=O [Undecy Unsaturated]
Ki [1]: 103 ± 22 µM

Compound: CCCCCC/C=C/C=O [Nonyl Unsaturated, trans-2-nonenal]
NADPH-dependent oxidation of aldehyde by expressed 2A6 [2]: no acid products
NADPH-dependent oxidation of aldehyde by expressed 2E1 [3]: effective in the oxidation

Compound: CCC=CC=O [Pentyl Unsaturated]
Ki [1]: 1270 ± 150 µM

Compound: CC(C)=CCCC(C)=CC=O [citral, 3,7-dimethyl 2,6-octadienal]
Ki [4]: 18.8 µM and 15.7 µM
mode of inhibition of 2E1 ([4]; Michaelis-Menten model): reversible competitive inhibition
fold difference in 2E1 KI, branched versus linear 10-carbon aldehyde [4]: 5 fold
Ki [1, 5]: > 100 µM

Compound: CCCC/C=C/C=O [Heptyl Unsaturated, trans-2-heptenal]
NADPH-dependent oxidation of aldehyde by expressed 2A6 [2]: no acid products
NADPH-dependent oxidation of aldehyde by expressed 2E1 [3]: effective in the oxidation

Compound: C=CCCCCCCCCC=O [11-undecylenic aldehyde]
loss of the activity of 2E1 after pre-incubation (2E1): ~ 50%

More lines, now with the values ahead:

Ki [1]: 25 ± 2 µM
Compound: CCCCCCCC=O [Octyl Saturated]

Ki [1, 5]: 15.8 ± 1.1 µM
Compound: CCCCCCC=O [Heptyl Saturated, heptanal]

Ki [1]: 126 ± 16 µM
Compound: CCCCC=O [Pentyl Saturated]

Ki [1]: 57 ± 7 µM
Compound: CCCCCC=O [Hexyl Saturated]

Ki [4]: 7 µM
fold difference in 2E1 KI, branched versus linear 10-carbon aldehyde [4]: about 8 fold
Compound: CCCCCCCCCC=O [Decyl Saturated, decanal]

Ki [1]: 55 ± 6 µM
Compound: CCCCCCCCC=O [Nonyl Saturated]
